PubChem BioAssay (NCI)
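Values below derive from 48-hour exposures of cells grown in 96-well plates, with endpoints linearly interpolated between the two concentrations bracketing the appropriate inhibition level. GI50 marks 50% less growth. TGI: concentration producing complete growth inhibition.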

Experiments:
Test in all cases: DTP human tumour cell line panel, 48 h
A498 renal = tested on: A498 renal
A549 NSCLC = tested on: A549 NSCLC
ACHN renal = tested on: ACHN renal
BT-549 breast = tested on: BT-549 breast
CAKI-1 renal = tested on: CAKI-1 renal
CCRF-CEM leukemia = tested on: CCRF-CEM leukemia
DU-145 prostate = tested on: DU-145 prostate
HCT-15 colon = tested on: HCT-15 colon
HOP-92 NSCLC = tested on: HOP-92 NSCLC
HS 578T breast = tested on: HS 578T breast
IGROV1 ovarian = tested on: IGROV1 ovarian
K-562 leukemia = tested on: K-562 leukemia
KM12 colon = tested on: KM12 colon
LOX IMVI melanoma = tested on: LOX IMVI melanoma
M14 melanoma = tested on: M14 melanoma
MALME-3M melanoma = tested on: MALME-3M melanoma
MDA-MB-231 breast = tested on: MDA-MB-231 breast
MDA-MB-435 = tested on: MDA-MB-435
MOLT-4 leukemia = tested on: MOLT-4 leukemia
NCI-H226 lung = tested on: NCI-H226 lung
NCI-H460 lung = tested on: NCI-H460 lung
OVCAR-3 ovarian = tested on: OVCAR-3 ovarian
OVCAR-8 ovarian = tested on: OVCAR-8 ovarian
PC-3 prostate = tested on: PC-3 prostate
RPMI-8226 leukemia = tested on: RPMI-8226 leukemia
SF-295 CNS = tested on: SF-295 CNS
SF-539 CNS = tested on: SF-539 CNS
SK-MEL-5 melanoma = tested on: SK-MEL-5 melanoma
SK-OV-3 ovarian = tested on: SK-OV-3 ovarian
SN12C renal = tested on: SN12C renal
SR leukemia = tested on: SR leukemia
SW-620 colon = tested on: SW-620 colon
TK-10 renal = tested on: TK-10 renal
U251 CNS = tested on: U251 CNS
UACC-257 melanoma = tested on: UACC-257 melanoma
UACC-62 melanoma = tested on: UACC-62 melanoma
786-0 renal = tested on: 786-0 renal
COLO 205 colon = tested on: COLO 205 colon
EKVX NSCLC = tested on: EKVX NSCLC
HCC-2998 colon = tested on: HCC-2998 colon
HCT-116 colon = tested on: HCT-116 colon
HOP-62 NSCLC = tested on: HOP-62 NSCLC
HT29 colon = tested on: HT29 colon
MCF7 breast = tested on: MCF7 breast
NCI-H23 lung = tested on: NCI-H23 lung
NCI-H522 lung = tested on: NCI-H522 lung
OVCAR-4 ovarian = tested on: OVCAR-4 ovarian
OVCAR-5 ovarian = tested on: OVCAR-5 ovarian
RXF 393 renal = tested on: RXF 393 renal
SF-268 CNS = tested on: SF-268 CNS
SK-MEL-2 melanoma = tested on: SK-MEL-2 melanoma
SK-MEL-28 melanoma = tested on: SK-MEL-28 melanoma
SNB-19 CNS = tested on: SNB-19 CNS
SNB-75 CNS = tested on: SNB-75 CNS
T-47D breast = tested on: T-47D breast
UO-31 renal = tested on: UO-31 renal
HL-60(TB) leukemia = tested on: HL-60(TB) leukemia
NCI/ADR-RES ovarian = tested on: NCI/ADR-RES ovarian

c1ccc2c(c1)ccc1cc3cc(NCCCCNc4ccc5nc6c(ccc7ccccc76)cc5c4)ccc3nc12
TGI (A498 renal): 2.43 µM
TGI (A549 NSCLC): 2.84 µM
TGI (ACHN renal): 2.68 µM
TGI (BT-549 breast): 4.06 µM
TGI (CAKI-1 renal): 3.54 µM
TGI (CCRF-CEM leukemia): 2.29 µM
TGI (DU-145 prostate): 2.67 µM
TGI (HCT-15 colon): 2.01 µM
TGI (HOP-92 NSCLC): 4.09 µM
TGI (HS 578T breast): 4.25 µM
TGI (IGROV1 ovarian): 2.99 µM
TGI (K-562 leukemia): 3.55 µM
TGI (KM12 colon): 0.532 µM
TGI (LOX IMVI melanoma): 3.43 µM
TGI (M14 melanoma): 3.29 µM
TGI (MALME-3M melanoma): 3.16 µM
TGI (MDA-MB-231 breast): 0.348 µM
TGI (MDA-MB-435): 3.45 µM
TGI (MOLT-4 leukemia): 0.418 µM
TGI (NCI-H226 lung): 3.24 µM
TGI (NCI-H460 lung): 0.53 µM
TGI (OVCAR-3 ovarian): 4.06 µM
TGI (OVCAR-8 ovarian): 0.303 µM
TGI (PC-3 prostate): 2.67 µM
TGI (RPMI-8226 leukemia): 1.48 µM
TGI (SF-295 CNS): 3.03 µM
TGI (SF-539 CNS): 2.88 µM
TGI (SK-MEL-5 melanoma): 2.67 µM
TGI (SK-OV-3 ovarian): 6.34 µM
TGI (SN12C renal): 2.7 µM
TGI (SR leukemia): 0.043 µM
TGI (SW-620 colon): 0.405 µM
TGI (TK-10 renal): 3.18 µM
TGI (U251 CNS): 0.374 µM
TGI (UACC-257 melanoma): 3.11 µM
TGI (UACC-62 melanoma): 3.04 µM

Nc1c([N+](=O)[O-])ncn1C1OC(CO)C(O)C1O (configuration not stated)
GI50 (786-0 renal): > 100 µM
TGI (786-0 renal): > 100 µM
GI50 (A498 renal): > 100 µM
TGI (A498 renal): > 100 µM
GI50 (A549 NSCLC): > 100 µM
TGI (A549 NSCLC): > 100 µM
GI50 (ACHN renal): > 100 µM
TGI (ACHN renal): > 100 µM
GI50 (BT-549 breast): > 100 µM
TGI (BT-549 breast): > 100 µM
GI50 (CAKI-1 renal): > 100 µM
TGI (CAKI-1 renal): > 100 µM
GI50 (CCRF-CEM leukemia): > 100 µM
TGI (CCRF-CEM leukemia): > 100 µM
GI50 (COLO 205 colon): > 100 µM
TGI (COLO 205 colon): > 100 µM
GI50 (DU-145 prostate): > 100 µM
TGI (DU-145 prostate): > 100 µM
GI50 (EKVX NSCLC): > 100 µM
TGI (EKVX NSCLC): > 100 µM
GI50 (HCC-2998 colon): > 100 µM
TGI (HCC-2998 colon): > 100 µM
GI50 (HCT-116 colon): > 100 µM
TGI (HCT-116 colon): > 100 µM
GI50 (HCT-15 colon): > 100 µM
TGI (HCT-15 colon): > 100 µM
GI50 (HOP-62 NSCLC): > 100 µM
TGI (HOP-62 NSCLC): > 100 µM
GI50 (HS 578T breast): > 100 µM
TGI (HS 578T breast): > 100 µM
GI50 (HT29 colon): > 100 µM
TGI (HT29 colon): > 100 µM
GI50 (IGROV1 ovarian): > 100 µM
TGI (IGROV1 ovarian): > 100 µM
GI50 (K-562 leukemia): > 100 µM
TGI (K-562 leukemia): > 100 µM
GI50 (KM12 colon): > 100 µM
TGI (KM12 colon): > 100 µM
GI50 (LOX IMVI melanoma): > 100 µM
TGI (LOX IMVI melanoma): > 100 µM
GI50 (M14 melanoma): > 100 µM
TGI (M14 melanoma): > 100 µM
GI50 (MCF7 breast): > 100 µM
TGI (MCF7 breast): > 100 µM
GI50 (MDA-MB-231 breast): > 100 µM
TGI (MDA-MB-231 breast): > 100 µM
GI50 (MDA-MB-435): > 100 µM
TGI (MDA-MB-435): > 100 µM
GI50 (MOLT-4 leukemia): > 100 µM
TGI (MOLT-4 leukemia): > 100 µM
GI50 (NCI-H226 lung): > 100 µM
TGI (NCI-H226 lung): > 100 µM
GI50 (NCI-H23 lung): > 100 µM
TGI (NCI-H23 lung): > 100 µM
GI50 (NCI-H460 lung): > 100 µM
TGI (NCI-H460 lung): > 100 µM
GI50 (NCI-H522 lung): > 100 µM
TGI (NCI-H522 lung): > 100 µM
GI50 (OVCAR-3 ovarian): > 100 µM
TGI (OVCAR-3 ovarian): > 100 µM
GI50 (OVCAR-4 ovarian): > 100 µM
TGI (OVCAR-4 ovarian): > 100 µM
GI50 (OVCAR-5 ovarian): > 100 µM
TGI (OVCAR-5 ovarian): > 100 µM
GI50 (OVCAR-8 ovarian): > 100 µM
TGI (OVCAR-8 ovarian): > 100 µM
GI50 (PC-3 prostate): > 100 µM
TGI (PC-3 prostate): > 100 µM
GI50 (RPMI-8226 leukemia): > 100 µM
TGI (RPMI-8226 leukemia): > 100 µM
GI50 (RXF 393 renal): > 100 µM
TGI (RXF 393 renal): > 100 µM
GI50 (SF-268 CNS): > 100 µM
TGI (SF-268 CNS): > 100 µM
GI50 (SF-295 CNS): > 100 µM
TGI (SF-295 CNS): > 100 µM
GI50 (SF-539 CNS): > 100 µM
TGI (SF-539 CNS): > 100 µM
GI50 (SK-MEL-2 melanoma): > 100 µM
TGI (SK-MEL-2 melanoma): > 100 µM
GI50 (SK-MEL-28 melanoma): > 100 µM
TGI (SK-MEL-28 melanoma): > 100 µM
GI50 (SK-MEL-5 melanoma): > 100 µM
TGI (SK-MEL-5 melanoma): > 100 µM
GI50 (SK-OV-3 ovarian): > 100 µM
TGI (SK-OV-3 ovarian): > 100 µM
GI50 (SN12C renal): > 100 µM
TGI (SN12C renal): > 100 µM
GI50 (SNB-19 CNS): > 100 µM
TGI (SNB-19 CNS): > 100 µM
GI50 (SNB-75 CNS): > 100 µM
TGI (SNB-75 CNS): > 100 µM
GI50 (SW-620 colon): > 100 µM
TGI (SW-620 colon): > 100 µM
GI50 (T-47D breast): > 100 µM
TGI (T-47D breast): > 100 µM
GI50 (TK-10 renal): > 100 µM
TGI (TK-10 renal): > 100 µM
GI50 (U251 CNS): > 100 µM
TGI (U251 CNS): > 100 µM
GI50 (UACC-257 melanoma): > 100 µM
TGI (UACC-257 melanoma): > 100 µM
GI50 (UACC-62 melanoma): > 100 µM
TGI (UACC-62 melanoma): > 100 µM
GI50 (UO-31 renal): > 100 µM
TGI (UO-31 renal): > 100 µM

CCOC(=O)CSc1nc(-c2ccc(Cl)cc2)c(C#N)c(=O)[nH]1
TGI (786-0 renal): > 100 µM
TGI (A498 renal): > 100 µM
TGI (A549 NSCLC): > 100 µM
TGI (ACHN renal): > 100 µM
TGI (BT-549 breast): > 100 µM
TGI (CAKI-1 renal): > 100 µM
TGI (CCRF-CEM leukemia): 89 µM
TGI (COLO 205 colon): > 100 µM
TGI (DU-145 prostate): > 100 µM
TGI (EKVX NSCLC): > 100 µM
TGI (HCC-2998 colon): > 100 µM
TGI (HCT-116 colon): > 100 µM
TGI (HCT-15 colon): > 100 µM
TGI (HL-60(TB) leukemia): 71.9 µM
TGI (HOP-62 NSCLC): > 100 µM
TGI (HOP-92 NSCLC): > 100 µM
TGI (HS 578T breast): > 100 µM
TGI (HT29 colon): > 100 µM
TGI (IGROV1 ovarian): > 100 µM
TGI (K-562 leukemia): > 100 µM
TGI (KM12 colon): > 100 µM
TGI (M14 melanoma): > 100 µM
TGI (MCF7 breast): > 100 µM
TGI (MDA-MB-231 breast): > 100 µM
TGI (MDA-MB-435): > 100 µM
TGI (MOLT-4 leukemia): > 100 µM
TGI (NCI-H226 lung): > 100 µM
TGI (NCI-H23 lung): > 100 µM
TGI (NCI-H460 lung): > 100 µM
TGI (NCI-H522 lung): > 100 µM
TGI (NCI/ADR-RES ovarian): > 100 µM
TGI (OVCAR-3 ovarian): > 100 µM
TGI (OVCAR-4 ovarian): > 100 µM
TGI (OVCAR-5 ovarian): > 100 µM
TGI (OVCAR-8 ovarian): > 100 µM
TGI (PC-3 prostate): > 100 µM
TGI (RPMI-8226 leukemia): > 100 µM
TGI (RXF 393 renal): > 100 µM
TGI (SF-268 CNS): > 100 µM
TGI (SF-295 CNS): > 100 µM
TGI (SF-539 CNS): > 100 µM
TGI (SK-MEL-2 melanoma): > 100 µM
TGI (SK-MEL-28 melanoma): > 100 µM
TGI (SK-MEL-5 melanoma): > 100 µM
TGI (SK-OV-3 ovarian): > 100 µM
TGI (SN12C renal): > 100 µM
TGI (SNB-19 CNS): > 100 µM
TGI (SNB-75 CNS): > 100 µM
TGI (SW-620 colon): > 100 µM
TGI (T-47D breast): > 100 µM
TGI (TK-10 renal): > 100 µM
TGI (U251 CNS): > 100 µM
TGI (UACC-257 melanoma): > 100 µM
TGI (UACC-62 melanoma): > 100 µM
TGI (UO-31 renal): > 100 µM
